Measured values taken from US9610322B2, “Macrocyclic insulin-degrading enzyme (IDE) inhibitors and uses thereof” (President and Fellows of Harvard College, priority 2011, dated 2017).

Legend:
[1] = biological target: recombinant human IDE (Homo sapiens (Human), UniProt P14735); test: IDE protease assay, cleavage of fluorophore-quencher substrate peptide; format: biochemical; conditions: for stronger potency of trans-olefin isomer than corresponding cis-olefin isomer: trans vs cis olefin
Procedure: In vitro protease assays: Protease assays with IDE and neprilysin were performed using Mca-RPPGFSAFK(Dnp)-OH substrate peptide (R&D Systems, SEQ ID NO: 6) and purified recombinant human IDE and recombinant human neprilysin (R&D Systems) according to the manufacturer's instructions. For IDE, 2 μL of small molecule dissolved in DMSO was combined with 48 μL, 0.2 μg/mL IDE in IDE assay buffer (50 mM Tris, 1 M NaCl, pH 7.5). 50 μL, of 20 μM substrate peptide in IDE assay buffer was then added to initiate the reaction, and peptide cleavage was monitored on a fluorescent plate reader (excitation=320 nm; emission=405 nm) for 5 minutes. The above protocol was also used for assaying neprilysin activity, substituting the neprilysin assay buffer (50 mM Tris, 0.05% Brij-35, pH 9.0).
Compounds were synthesized as described previously;^9 in most cases the macrocycle synthesis yielded two isomers corresponding to the cis and trans olefins generated after macrocyclization. Macrocycles were assayed for IDE inhibition by monitoring cleavage of a substrate peptide^13 containing a fluorophore-quencher pair such that cleavage of the model substrate results in increased fluorescence.

[2] = previous indications; cited from earlier work
[3] = Preliminary pharmacokinetics after i.p. injection, LC-MS quantitation; conditions: mice
[4] = Biodistribution assay after IP injection, LC-MS of organ extracts; format: in vivo, mouse; conditions: mice, intraperitoneal injection, 45 minutes
Procedure: Macrocycles were diluted to 0.1 mg/mL or 1 mg/mL in PBS and IP-injected into a mouse to produce a concentration of 1 mg/kg or 10 mg/kg, respectively. After 45 minutes, organs were harvested, and the small-molecule fractions were extracted into a 2:1:1 mixture of chloroform:methanol:water. Samples were evaporated under a stream of nitrogen, resuspended in 100 μL of chloroform and subjected to LC-MS analysis.
The tissue distribution of enriched macrocycles after i.p. injection was examined. […] Briefly, compounds were injected at different concentrations intraperitoneally into mice, and plasma, brain, and pancreas were harvested after 45 minutes. Vehicle-only injections were performed as negative controls. We determined the relative amount of macrocycle present by extracting the organs with organic solvents and quantifying the amount of compound present by LC-MS analysis.

[5] = test system: plasma IDE activity; test: Plasma IDE activity in mice injected with inhibitor; format: in vivo
Procedure: Finally, we compared plasma IDE activity in mice injected with 6b with plasma IDE activity in control mice injected with vehicle alone (18:1:1, saline:DMSO:Tween-80). Plasma IDE activity 60 min after 10 mg/kg, 20 mg/kg, or 40 mg/kg i.p. injection of 6b was inhibited by ≧90% (FIG. 9).

recombinant human IDE, sequence (P14735 whole entry): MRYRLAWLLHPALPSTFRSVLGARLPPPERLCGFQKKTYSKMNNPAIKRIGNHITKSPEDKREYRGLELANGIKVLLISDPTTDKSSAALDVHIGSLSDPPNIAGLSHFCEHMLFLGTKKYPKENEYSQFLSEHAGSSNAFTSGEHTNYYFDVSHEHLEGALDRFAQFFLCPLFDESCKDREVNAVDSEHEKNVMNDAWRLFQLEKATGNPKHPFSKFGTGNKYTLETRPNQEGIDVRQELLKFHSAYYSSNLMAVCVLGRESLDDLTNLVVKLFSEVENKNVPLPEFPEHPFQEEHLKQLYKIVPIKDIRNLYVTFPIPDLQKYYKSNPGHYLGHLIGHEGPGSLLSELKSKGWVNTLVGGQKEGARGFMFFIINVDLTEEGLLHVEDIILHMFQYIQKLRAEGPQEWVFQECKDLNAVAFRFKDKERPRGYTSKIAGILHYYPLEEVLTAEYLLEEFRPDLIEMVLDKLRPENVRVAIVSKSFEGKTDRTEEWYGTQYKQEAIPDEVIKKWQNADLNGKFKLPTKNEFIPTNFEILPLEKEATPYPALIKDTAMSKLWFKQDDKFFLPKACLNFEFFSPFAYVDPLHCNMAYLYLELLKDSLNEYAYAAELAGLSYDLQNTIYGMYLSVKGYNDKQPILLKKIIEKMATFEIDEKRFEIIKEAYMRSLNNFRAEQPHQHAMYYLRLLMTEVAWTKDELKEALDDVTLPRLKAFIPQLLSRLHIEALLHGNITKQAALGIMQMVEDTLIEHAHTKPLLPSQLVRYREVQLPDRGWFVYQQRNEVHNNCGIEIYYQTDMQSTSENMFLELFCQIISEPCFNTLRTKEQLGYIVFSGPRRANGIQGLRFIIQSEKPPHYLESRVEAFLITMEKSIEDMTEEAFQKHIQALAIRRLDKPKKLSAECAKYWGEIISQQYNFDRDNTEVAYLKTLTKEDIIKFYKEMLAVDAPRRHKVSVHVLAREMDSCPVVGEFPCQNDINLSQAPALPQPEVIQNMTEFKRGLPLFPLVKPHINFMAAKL

## NC(=O)CCC1NC(=O)C=CC(=O)NC(C(N)=O)CCCCNC(=O)CNC(=O)C(CC2CCCCC2)NC1=O (stereo not shown) [Compound 1]
[1]
  activity against IDE in words: inactive

## NC(=O)CCC1NC(=O)C=CC(=O)NC(C(N)=O)CCCCNC(=O)C(Cc2ccc(C(=O)c3ccccc3)cc2)NC(=O)C(CC2CCCCC2)NC1=O (mixture of isomers) [Compound 6]
[1]
  stronger potency of trans-olefin isomer than corresponding cis-olefin isomer: > 10 fold

## N=C(N)NCCC[C@H](NC(=O)[C@@H](CC(=O)NO)Cc1ccc2ccccc2c1)C(=O)N[C@@H](Cc1c[nH]c2ccccc12)C(=O)N[C@@H](CCC(=O)O)C(N)=O [Ii1]
[2]
  stability under physiological conditions: not sufficiently stable under physiological conditions

## NC(=O)C1CCCCNC(=O)C(Cc2ccc(C(=O)c3ccccc3)cc2)NC(=O)C(CC2CCCCC2)NC(=O)CC(O)C(CC2CCCCC2)NC(=O)C=CC(=O)N1 (mixture of isomers) [Compound 3]
[1]
  stronger potency of trans-olefin isomer than corresponding cis-olefin isomer: > 10 fold

## NC(=O)C1CCCCNC(=O)C(Cc2ccc(C(=O)c3ccccc3)cc2)NC(=O)C(CC2CCCCC2)NC(=O)C(CC2CC2)NC(=O)C=CC(=O)N1 (mixture of isomers) [Compound 5]
[1]
  stronger potency of trans-olefin isomer than corresponding cis-olefin isomer: > 10 fold

## NC(=O)CCC1NC(=O)C=CC(=O)NC(C(N)=O)CCCCNC(=O)C(Cc2ccc(C(=O)c3ccccc3)cc2)NC(=O)C(CC2CCCCC2)NC1=O (stereo not shown) [Compound 6b]
[3]; i.p. 20 mg/kg
  peak blood concentration: 0.2 µM
  time of peak blood concentration: 60 min
[3]; i.p. 20 mg/kg in 18:1:1 saline:DMSO:Tween-80
  tolerability of injections: well tolerated
[4]
  detection in brain: none of the three compounds could be detected in the brain
  detection in pancreas: could be detected
  detection in plasma: could be detected
  macrocycle concentrations in the plasma compared among compounds: comparable
[5]; 60 min after 10 mg/kg i.p.
  inhibition of plasma IDE activity: ≥ 90%
[5]; 60 min after 20 mg/kg i.p.
  inhibition of plasma IDE activity: ≥ 90%
[5]; 60 min after 40 mg/kg i.p.
  inhibition of plasma IDE activity: ≥ 90%

## NCCCC[C@@H]1NC(=O)/C=C/C(=O)NC(C(N)=O)CCCCNC(=O)[C@@H](Cc2ccc(C(=O)c3ccccc3)cc2)NC(=O)[C@H](CC2CCCCC2)NC1=O (stereo partly shown) [Compound 20]
[1]; derivatives of 6b
  effect of modification on IDE inhibitor potency relative to 6b, in words: equipotent
